Reference: patent US10759812B2, “Thienopyrimidine derivative and use thereof in medicine” (SUNSHINE LAKE PHARMA CO., LTD., priority 2017, dated 2020)

Experiments:
ACC1 = ACC1 (Homo sapiens (Human), UniProt Q13085); assay: Acetyl-CoA carboxylase inhibition activity assay in vitro (ADP-Glo kinase assay), ACC1; assay type: biochemical; details: 1 nM ACC1, 5% DMSO, 25° C.
Method: (§1) The inhibitory action of the compounds against ACC1 or ACC2 was determined by using ADP-Clo™ kinase assay kit from Promega. The ADP-Glo™ Kinase Assay is a luminescent ADP detection assay to measure enzymatic activity by quantifying the amount of ADP produced during an enzyme reaction. The assay is performed in two steps; first, after the enzyme reaction, an equal volume of ADP-Glo™ Reagent is added to terminate the reaction and deplete the remaining ATP. Second, the Kinase Detection Reagent is added to simultaneously convert ADP to ATP and allow the newly synthesized ATP to be measured using a luciferase/luciferin reaction. Luminescence can be correlated to ADP concentrations by using an ATP-to-ADP conversion curve.
(§2) The detailed procedure is as follows. • a. 4.5 μL/well of ACC1/ACC2 working solution (2.22 nM) was added to a 384-well reaction plate (PerkinElmer, 6007290). • b. The compound (10 mM) was diluted with 100% DMSO 500 times to a concentration of 20 μM, the dilute compound solution was diluted 1:3 in succession in a 384-well dilution plate (3657, corning) to gradient concentrations of 20, 6.67, 2.22, 0.74, 0.25, 0.082, 0.027, 0.009, 0.003, 0.001, 0 μM; • c. 0.5 μL/well of the compound solution (prepared in step b) was added to the 384-well reaction plate (prepared in step a), the plate was centrifuged at 1000 rpm and incubated at 25° C. for 15 minutes; • d. 0.5 μL/well of substrate mixture (ATP (10 mM), Acetyl-CoA (2 mM), NaHCO3 (1000 mM)) was transfered into the 384-well reaction plate, the plate was centrifuged at 1000 rpm and incubated at 25° C. for 30 minutes. The compound final gradient concentrations in the reaction system were 1000, 333.3, 111.1, 37.04, 12.35, 4.12, 1.37, 0.46, 0.15, 0.05, 0 nM. The final concentration of DMSO was 5%; the final concentration of ACC1/ACC2 is 1 nM. • e. 10 μL/well of ADP-Glo solution was transfered into the 384-well reaction plate, the plate was centrifuged at 1000 rpm and incubated at 25° C. for 40 minutes. • f. 20 µL/well of kinase detection reagent was transfered into the 384-well reaction plate, the plate was centrifuged at 1000 rpm and incubated at 25° C. for 40 minutes. • g. Relative Light Units (RLU) was read on an Envision multifunction plate reader. The signal intensity represents the level of ACC1/ACC2 kinase activity.
(§3) The ACC1/ACC2 working solution, substrate mixture, ADP-Glo solution and kinase detection reagent used in the assay are all prepared by using 1× kinase reaction buffer [hydroxyethylpiperazineethanesulfonic acid (HEPES, 50 mM), MgCl2 (2 mM), lauryl polyglycol ether (BRIJ-35, 0.01%), potassium citrate (2 mM), bovine serum albumin (BSA, 50 μg/mL), dithiothreitol (DTT, 2 mM)].
(§4) Data for each concentration, as well as the positive and negative controls were averaged, and the standard deviation was calculated. Percent inhibition was calculated by the formula: 100×(average negative control−compound)/(average negative control−average positive control). The IC50 for each compound was calculated by fitting the data with a nonlinear regression equation: Y=Bottom+(Top−Bottom)/(1+10^((Log IC50−X)×HillSlope)), where X is the log of compound concentration and Y is percent inhibition. 0.1 μM ND-630 was as positive control in the assay.

ACC2 = ACC2 (Homo sapiens (Human), UniProt O00763); assay: Acetyl-CoA carboxylase inhibition activity assay in vitro (ADP-Glo kinase assay), ACC2; assay type: biochemical; details: 1 nM ACC2, 5% DMSO, 25° C.
Sequence of ACC2 (O00763 whole entry, species assumed): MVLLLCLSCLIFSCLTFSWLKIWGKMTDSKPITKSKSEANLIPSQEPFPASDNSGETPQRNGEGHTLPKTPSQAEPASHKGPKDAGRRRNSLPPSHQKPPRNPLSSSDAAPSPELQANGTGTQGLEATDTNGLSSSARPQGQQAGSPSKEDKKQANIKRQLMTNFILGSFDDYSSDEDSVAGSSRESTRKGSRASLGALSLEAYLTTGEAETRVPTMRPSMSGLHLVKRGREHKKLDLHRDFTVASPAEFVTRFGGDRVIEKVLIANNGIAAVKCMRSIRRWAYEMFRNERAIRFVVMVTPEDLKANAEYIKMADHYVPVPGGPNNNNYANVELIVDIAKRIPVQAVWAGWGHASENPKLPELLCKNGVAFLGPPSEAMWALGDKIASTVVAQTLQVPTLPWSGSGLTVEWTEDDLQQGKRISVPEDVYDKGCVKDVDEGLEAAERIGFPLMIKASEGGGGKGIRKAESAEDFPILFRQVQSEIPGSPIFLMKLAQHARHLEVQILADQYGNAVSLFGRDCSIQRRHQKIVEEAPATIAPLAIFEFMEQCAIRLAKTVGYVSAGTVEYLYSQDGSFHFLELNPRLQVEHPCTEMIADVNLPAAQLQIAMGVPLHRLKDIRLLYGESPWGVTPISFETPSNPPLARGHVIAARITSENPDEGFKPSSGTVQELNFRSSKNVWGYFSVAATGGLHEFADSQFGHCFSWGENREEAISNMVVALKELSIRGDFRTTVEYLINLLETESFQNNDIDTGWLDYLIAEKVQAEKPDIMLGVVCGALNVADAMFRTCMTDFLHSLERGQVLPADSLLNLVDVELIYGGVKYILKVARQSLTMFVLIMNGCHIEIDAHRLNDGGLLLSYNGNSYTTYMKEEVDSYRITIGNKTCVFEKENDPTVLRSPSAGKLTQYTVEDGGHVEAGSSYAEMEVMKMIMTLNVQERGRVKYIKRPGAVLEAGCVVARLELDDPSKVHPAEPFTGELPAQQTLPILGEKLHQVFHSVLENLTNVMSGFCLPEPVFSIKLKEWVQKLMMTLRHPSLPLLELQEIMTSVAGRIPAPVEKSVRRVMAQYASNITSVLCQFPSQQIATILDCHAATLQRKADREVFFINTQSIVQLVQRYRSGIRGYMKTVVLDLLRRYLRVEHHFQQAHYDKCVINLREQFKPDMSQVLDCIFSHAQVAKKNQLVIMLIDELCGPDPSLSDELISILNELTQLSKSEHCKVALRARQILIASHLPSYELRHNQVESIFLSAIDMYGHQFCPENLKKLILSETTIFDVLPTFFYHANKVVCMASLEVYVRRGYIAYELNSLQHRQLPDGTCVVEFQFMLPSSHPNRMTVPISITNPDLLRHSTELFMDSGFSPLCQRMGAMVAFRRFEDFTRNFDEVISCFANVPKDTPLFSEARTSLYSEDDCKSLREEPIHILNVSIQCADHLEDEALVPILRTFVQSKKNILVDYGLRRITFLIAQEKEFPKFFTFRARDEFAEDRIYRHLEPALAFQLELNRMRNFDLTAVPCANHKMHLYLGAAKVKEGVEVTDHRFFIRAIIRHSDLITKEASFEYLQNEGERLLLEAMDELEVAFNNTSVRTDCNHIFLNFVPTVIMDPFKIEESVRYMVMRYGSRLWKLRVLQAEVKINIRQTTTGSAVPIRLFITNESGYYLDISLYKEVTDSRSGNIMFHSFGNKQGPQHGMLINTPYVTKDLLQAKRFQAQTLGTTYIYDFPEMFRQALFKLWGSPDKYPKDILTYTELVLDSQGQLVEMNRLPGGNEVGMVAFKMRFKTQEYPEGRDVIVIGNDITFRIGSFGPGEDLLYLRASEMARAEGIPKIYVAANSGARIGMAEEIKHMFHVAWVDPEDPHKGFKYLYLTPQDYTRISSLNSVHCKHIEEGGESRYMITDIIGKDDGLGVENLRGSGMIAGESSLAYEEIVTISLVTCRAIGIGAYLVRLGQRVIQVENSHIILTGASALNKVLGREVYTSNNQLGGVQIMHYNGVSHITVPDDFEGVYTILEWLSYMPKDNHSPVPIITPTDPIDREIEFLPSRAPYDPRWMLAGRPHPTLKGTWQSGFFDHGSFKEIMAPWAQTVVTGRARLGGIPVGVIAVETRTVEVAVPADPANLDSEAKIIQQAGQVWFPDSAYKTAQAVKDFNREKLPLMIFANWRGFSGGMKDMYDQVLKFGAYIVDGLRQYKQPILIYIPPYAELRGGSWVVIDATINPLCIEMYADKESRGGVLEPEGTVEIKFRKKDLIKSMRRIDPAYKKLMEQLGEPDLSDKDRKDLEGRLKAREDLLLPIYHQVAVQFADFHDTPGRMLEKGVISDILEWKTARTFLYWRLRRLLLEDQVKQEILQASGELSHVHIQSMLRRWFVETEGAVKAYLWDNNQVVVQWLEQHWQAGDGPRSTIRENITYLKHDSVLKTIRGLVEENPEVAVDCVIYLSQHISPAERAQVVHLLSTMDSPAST
Method: as §1, §2, §3, §4

Row | Structure (SMILES) | IC50 (ACC1) | IC50 (ACC2)
1 | COc1ccccc1C(Cn1c(=O)n(C(C)(C)C(=O)O)c(=O)c2c(C)c(-c3ncco3)sc21)O[C@H]1C[C@H]2C[C@@H](O)C[C@H]2C1 (stereo partly drawn) [Example 1, 2-[1-[2-[[(3aS,6aR)-5-hydroxy-1,2,3,3a,4,5,6,6a-octahydropentalen-2-yl]oxy]-2-(2-methoxyphenyl)ethyl]-5-methyl-6-oxazol-2-yl-2,4-dioxo-thieno[2,3-d]pyrimid-3-yl]-2-methyl-propanoic acid] | 0.93 nM | 
2 | COc1ccccc1C(Cn1c(=O)n(C(C)(C)C(=O)O)c(=O)c2c(C)c(-c3ncco3)sc21)OC1CC2CN(S(C)(=O)=O)CC2C1 (centres unmarked) [Example 10, 2-[1-[2-(2-methoxyphenyl)-2-[(2-methylsulfonyl-3,3a,4,5,6,6a-hexahydro-1H-cyclopenteno[c]pyrrole-5-yl)oxy]ethyl]-5-methyl-6-oxazol-2-yl-2,4-dioxo-thieno[2,3-d]pyrimid-3-yl]-2-methyl-propanoic acid] | 0.81 nM | 1.76 nM
3 | COc1ccccc1C(Cn1c(=O)n(C(C)(C)C(=O)O)c(=O)c2c(C)c(-c3ncco3)sc21)OC1CC2COCC2C1 (centres unmarked) [Example 13, 2-[1-[2-(3,3a,4,5,6,6a-hexahydro-1H-cyclopenteno[c]furan5-oxy)-2-(2-methoxyphenyl)ethyl)-5-methyl-6-oxazol-2-yl-2,4-dioxo-thieno[2,3-d]pyrimid-3-yl]-2-methyl-propanoic acid] | 1.76 nM | 4.24 nM
4 | COc1ccccc1C(Cn1c(=O)n(C(C)(C)C(=O)O)c(=O)c2c(C)c(-c3ncco3)sc21)O[C@@H]1C[C@@H]2CC(C)(O)C[C@@H]2C1 (stereo partly drawn) [Example 14, 2-[1-[2-[[(3aR,6aS)-5-hydroxy-5-methyl-2,3,3a,4,6,6a-hexahydro-1H-pentalen-2-yl]oxy]-2-(2-methoxyphenyl)ethyl]-5-methyl-6-oxazol-2-yl-2,4-dioxo-thieno[2,3-d]pyrimid-3-yl]-2-methyl-propanoic acid] | 1.43 nM | 
5 | COc1ccccc1C(Cn1c(=O)n(C(C)(C)C(=O)O)c(=O)c2c(C)c(-c3ncco3)sc21)O[C@H]1C[C@H]2CC(C#N)C[C@H]2C1 (some centres unmarked) [Example 15, 2-[1-[2-[(5-cyano-1,2,3,3a,4,5,6,6a-octahydropentalen-2-yl)oxy]-2-(2-methoxyphenyl)ethyl]-5-methyl-6-oxazol-2-yl-2,4-dioxo-thieno[2,3-d]pyrimid-3-yl]-2-methyl-propanoic acid] | 1.64 nM | 6.53 nM
6 | COc1ccccc1C(Cn1c(=O)n(C(C)(C)C(=O)O)c(=O)c2c(C)c(-c3ncco3)sc21)O[C@H]1C[C@H]2C[C@H](F)C[C@H]2C1 (stereo partly drawn) [Example 17, 2-[1-[2-[[(3aR,6aS)-5-fluoro-1,2,3,3a,4,5,6,6a-octahydropentalen-2-yl]oxy]-2-(2-methoxyphenyl)ethyl)-5-methyl-6-oxazol-2-yl-2,4-dioxo-thieno[2,3-d]pyrimid-3-yl]-2-methyl-propanoic acid] | 2.24 nM | 
7 | COc1ccccc1C(Cn1c(=O)n(C(C)(C)C(=O)O)c(=O)c2c(C)c(-c3ncco3)sc21)O[C@@H]1C[C@@H]2CC(O)(C(F)(F)F)C[C@@H]2C1 (stereo partly drawn) [Example 18, 2-[1-[2-[[(3aR,6aS)-5-hydroxy-5-(trifluoromethyl)-2,3,3a,4,6,6a-hexahydro-1H-pentalen-2-yl]oxy]-2-(2-methoxyphenyl)ethyl]-5-methyl-6-oxazol-2-yl-2,4-dioxo-thieno[2,3-d]pyrimid-3-yl]-2-methyl-propanoic acid] | 0.89 nM | 
8 | CCC1(O)C[C@H]2C[C@@H](OC(Cn3c(=O)n(C(C)(C)C(=O)O)c(=O)c4c(C)c(-c5ncco5)sc43)c3ccccc3OC)C[C@H]2C1 (stereo partly drawn) [Example 19, 2-[1-[2-[[(3aR,6aS)-5-ethyl-5-hydroxy-2,3,3a,4,6,6a-hexahydro-1H-pentalen-2-yl]oxy]-2-(2-methoxyphenyl)ethyl)-5-methyl-6-oxazol-2-yl-2,4-dioxo-thieno[2,3-d]pyrimid-3-yl]-2-methyl-propanoic acid] | 0.88 nM | 5.45 nM
9 | COc1ccccc1C(Cn1c(=O)n(C(C)(C)C(=O)O)c(=O)c2c(C)c(-c3ncco3)sc21)O[C@@H]1C[C@@H]2CC(F)(F)C[C@@H]2C1 (stereo partly drawn) [Example 21, 2-[1-[2-[[(3aR,6aS)-5,5-difluoro-2,3,3a,4,6,6a-hexahydro-1H-pentalen-2-yl]oxy]-2-(2-methoxyphenyl)ethyl)-5-methyl-6-oxazol-2-yl-2,4-dioxo-thieno[2,3-d]pyrimid-3-yl]-2-methyl-propanoic acid] | 1.43 nM | 4.07 nM
10 | COc1ccccc1C(Cn1c(=O)n(C(C)(C)C(=O)O)c(=O)c2c(C)c(-c3ncco3)sc21)O[C@H]1C[C@H]2CC(O)C(O)[C@H]2C1 (stereo partly drawn) [Example 22, 2-[1-[2-[[(2S,3aS,6aR)-4,5-dihydroxy-1,2,3,3a,4,5,6,6a-octahydropentalen-2-yl]oxy]-2-(2-methoxyphenyl)ethyl]-5-methyl-6-oxazol-2-yl-2,4-dioxo-thieno[2,3-d]pyrimid-3-yl]-2-methyl-propanoic acid] | 1.55 nM | 8.44 nM
11 | COc1ccccc1C(Cn1c(=O)n(C(C)(C)C(=O)O)c(=O)c2c(C)c(-c3ncco3)sc21)O[C@@H]1C[C@@H]2CC(O)(C3CC3)C[C@@H]2C1 (stereo partly drawn) [Example 23, 2-[1-[2-[[(3aR,6aS)-5-cyclopropyl-5-hydroxy-2,3,3a,4,6,6a-hexahydro-1H-pentalen-2-yl]oxy]-2-(2-methoxyphenyl)ethyl]-5-methyl-6-oxazol-2-yl-2,4-dioxo-thieno[2,3-d]pyrimid-3-yl]-2-methyl-propanoic acid] | 0.67 nM | 1.13 nM
12 | COc1ccccc1C(Cn1c(=O)n(C(C)(C)C(=O)O)c(=O)c2c(C)c(-c3ncco3)sc21)O[C@@H]1C[C@@H]2CC(O)(C#N)C[C@@H]2C1 (stereo partly drawn) [Example 26, 2-[1-[2-[[(3aR,6aS)-5-cyano-5-hydroxy-2,3,3a,4,6,6a-hexahydro-1H-pentalen-2-yl]oxy]-2-(2-methoxyphenyl)ethyl]-5-methyl-6-oxazol-2-yl-2,4-dioxo-thieno[2,3-d]pyrimid-3-yl]-2-methyl-propanoic acid] | 1.43 nM | 5.4 nM
13 | COc1ccccc1C(Cn1c(=O)n(C(C)(C)C(=O)O)c(=O)c2c(C)c(-c3ncco3)sc21)O[C@@H]1C[C@@H]2CC(O)(CC#N)C[C@@H]2C1 (stereo partly drawn) [Example 27, 2-[1-[2-[[(3aS,6aR)-5-(cyanomethyl)-5-hydroxy-2,3,3a,4,6,6a-hexahydro-1H-pentalen-2-yl]oxy]-2-(2-methoxyphenyl)ethyl]-5-methyl-6-oxazol-2-yl-2,4-dioxo-thieno[2,3-d]pyrimid-3-yl]-2-methyl-propanoic acid] | 1.56 nM | 4.8 nM
14 | COc1ccccc1C(Cn1c(=O)n(C(C)(C)C(=O)O)c(=O)c2c(C)c(-c3ncco3)sc21)O[C@@H]1C[C@@H]2C[C@@H](S(C)(=O)=O)C[C@@H]2C1 (stereo partly drawn) [Example 29, 2-[1-[2-[[(3aR,6aS)-5-methylsulfonyl-1,2,3,3a,4,5,6,6a-octahydropentalen-2-yl]oxy]-2-(2-methoxyphenyl)ethyl]-5-methyl-6-oxazol-2-yl-2,4-dioxo-thieno[2,3-d]pyrimid-3-yl]-2-methyl-propanoic acid] | 0.47 nM | 2.19 nM
15 | COc1ccccc1C(Cn1c(=O)n(C(C)(C)C(=O)O)c(=O)c2c(C)c(-c3ncco3)sc21)O[C@H]1C[C@H]2CO[C@@H](C1)O2 (some centres unmarked) [Example 32] | 1.21 nM | 2.74 nM
